Among the test systems are NCI-H23 lung; HCT-15 colon; SF-295 CNS; MOLT-4 leukemia; SF-539 CNS; SK-MEL-5 melanoma; HOP-92 NSCLC; NCI/ADR-RES ovarian; ACHN renal; BT-549 breast.
Common to all, as to assay: growth of human tumour cells (NCI), 48 h

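These data come from cells grown in 96-well plates and exposed to compound for 48 hours at five concentrations. At the GI50, growth is halved. TGI denotes the concentration required for complete inhibition of growth.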

Regarding `O=C(O)CP(=O)(c1ccccc1)c1ccccc1.O=C(O)CP(=O)(c1ccccc1)c1ccccc1.[Cd]`, the GI50 in the assay on NCI-H23 lung is 20.2 µM; in the assay with HCT-15 colon, 9.21 µM; in the assay on SF-295 CNS, 30.5 µM; with MOLT-4 leukemia, 33.4 µM; with SF-539 CNS, 11.4 µM; in the assay with SK-MEL-5 melanoma, 2.19 µM. Also, the results for the GI50 with HOP-92 NSCLC, with NCI/ADR-RES ovarian and in the assay with ACHN renal were 18.4 µM, 21.9 µM and 16.1 µM, respectively. Further, the TGI is 41.9 µM with NCI-H23 lung; 22.9 µM in the assay on HCT-15 colon; more than 100 µM with SF-295 CNS; 52.4 µM in the assay with MOLT-4 leukemia; 26.2 µM with SF-539 CNS; 13.3 µM with SK-MEL-5 melanoma. Besides, the TGI stood at 33.7 µM with HOP-92 NSCLC, 52.2 µM in the assay on NCI/ADR-RES ovarian and 30.4 µM in the assay with ACHN renal.
Consider `CC(C(=O)N1C(=O)N(C(=O)[C@H](C)C(O)c2ccccc2)[C@H](c2ccccc2)[C@H]1c1ccccc1)[C@@H](O)c1ccccc1` (stereo partly drawn), for which the TGI in the assay with NCI-H23 lung is more than 100 µM; in the assay with HCT-15 colon it was more than 100 µM; in the assay with SF-295 CNS, more than 100 µM; with SF-539 CNS, 81.9 µM; in the assay with BT-549 breast it was 71 µM; in the assay on SK-MEL-5 melanoma it was 28.1 µM. The TGI was 83.3 µM in the assay with HOP-92 NSCLC and more than 100 µM in the assay on ACHN renal.
Turning to `O=C1CCCCCCCCCCC1CN(Cc1ccccc1)Cc1ccccc1` (stereo not drawn), the TGI in the assay on NCI-H23 lung was more than 100 µM; in the assay on HCT-15 colon it was more than 100 µM; with SF-295 CNS, more than 100 µM; with MOLT-4 leukemia, 62.5 µM; with SF-539 CNS it was more than 100 µM; in the assay on BT-549 breast it was more than 100 µM. Further, the TGI is 32.4 µM in the assay with SK-MEL-5 melanoma, more than 100 µM in the assay on HOP-92 NSCLC and more than 100 µM in the assay on ACHN renal.
`COc1ccc(NC(=O)CC(=O)n2nc(-c3ccccc3)c(N=Nc3ccccc3C)c2-c2ccccc2)cc1`: the TGI with NCI-H23 lung is 51.1 µM; in the assay on HCT-15 colon, more than 61.3 µM; in the assay with SF-295 CNS it was 45.6 µM; in the assay with MOLT-4 leukemia, more than 100 µM; in the assay with SF-539 CNS, 28.8 µM; in the assay with SK-MEL-5 melanoma, more than 86.5 µM. Moreover, the TGI in the assay on HOP-92 NSCLC was 34.9 µM; with NCI/ADR-RES ovarian, more than 100 µM; in the assay with ACHN renal, 63.7 µM.
Turning to `CNc1ccc(C(=O)CC(O)CCC(C)C2OC(=O)CC(O)CC(=O)CC(O)CC(O)CC(O)CC(O)CC3(O)CC(O)C(C(=O)NCCc4ccccn4)C(CC(OC4OC(C)C(O)C(N)C4O)/C=C/C=C/C=C/C=C\C=C/C=C/C=C/C2C)O3)cc1` (stereo not drawn), the GI50 with NCI-H23 lung is 0.118 µM; in the assay on HCT-15 colon, 4.75 µM; with SF-295 CNS, 1.05 µM; in the assay on MOLT-4 leukemia, 0.207 µM; in the assay on SF-539 CNS it was 2.73 µM; with BT-549 breast, 1.27 µM. Also, the GI50 in the assay on SK-MEL-5 melanoma is 0.157 µM; with HOP-92 NSCLC, 1.48 µM; in the assay on ACHN renal it was 0.841 µM. For the same compound, the TGI in the assay on NCI-H23 lung is 0.271 µM; in the assay with HCT-15 colon it was more than 50 µM; with SF-295 CNS, 11.4 µM; with MOLT-4 leukemia, more than 50 µM; with SF-539 CNS, more than 50 µM; in the assay on BT-549 breast, more than 50 µM. Besides, the TGI in the assay with SK-MEL-5 melanoma was determined as 0.447 µM; with HOP-92 NSCLC, 19.2 µM; in the assay with ACHN renal it was 1.53 µM.
As for `O=C1C(Cl)=C(Nc2cccc(O)c2)C(=O)N1c1ccc(Cl)cc1Cl`, the GI50 in the assay with NCI-H23 lung was 24.9 µM; in the assay on HCT-15 colon, 29.4 µM; with SF-295 CNS, 27.2 µM; with MOLT-4 leukemia it was 7.32 µM; with BT-549 breast, 13.9 µM; in the assay with SK-MEL-5 melanoma it was 14.7 µM. In addition, the GI50 in the assay on NCI/ADR-RES ovarian was 32.2 µM; in the assay with ACHN renal, 30.6 µM. For the same compound, the TGI in the assay on NCI-H23 lung is 88.7 µM; with HCT-15 colon, more than 100 µM; in the assay with SF-295 CNS, 86 µM; in the assay on MOLT-4 leukemia it was 33.1 µM; in the assay with BT-549 breast, 54.6 µM; with SK-MEL-5 melanoma, 32.2 µM. Further, the TGI with NCI/ADR-RES ovarian and in the assay with ACHN renal was more than 100 µM each time.
On to `O=C(OC(CNc1c(C(=O)c2ccccc2)c(=O)n(Cc2ccccc2)c(=O)n1Cc1ccccc1)CN1CCCCC1)c1ccccc1` (stereo not drawn), for which the GI50 in the assay with NCI-H23 lung was 18.5 µM; in the assay on HCT-15 colon, 13.5 µM; in the assay with SF-295 CNS it was 22.1 µM; with SF-539 CNS it was 21.7 µM; in the assay with BT-549 breast, 25.5 µM; in the assay with SK-MEL-5 melanoma, 18.2 µM. Also, the GI50 in the assay with NCI/ADR-RES ovarian was 17.6 µM; in the assay with ACHN renal, 30.1 µM. The TGI was found to be 39.2 µM in the assay on NCI-H23 lung; 26.3 µM in the assay with HCT-15 colon; 42.5 µM in the assay with SF-295 CNS; 42.2 µM in the assay with SF-539 CNS; 82.9 µM in the assay with BT-549 breast; 42.5 µM with SK-MEL-5 melanoma. The results for the TGI in the assay with NCI/ADR-RES ovarian and with ACHN renal were 34.5 µM and more than 100 µM, respectively.
As to `N=C(N)c1ccc(-c2ccc(-c3ccc(Cl)c(Cl)c3)o2)nc1`, the GI50 was 2.02 µM with NCI-H23 lung; 1.77 µM with HCT-15 colon; 1.63 µM in the assay on SF-539 CNS; 1.61 µM in the assay on BT-549 breast; 1.74 µM in the assay with SK-MEL-5 melanoma; 1.41 µM with HOP-92 NSCLC. Moreover, the GI50 in the assay with ACHN renal is 1.74 µM. Further, the TGI was 4.59 µM with NCI-H23 lung; 3.53 µM in the assay with HCT-15 colon; 3.04 µM in the assay on SF-539 CNS; 3.15 µM in the assay on BT-549 breast; 3.15 µM in the assay on SK-MEL-5 melanoma; 2.97 µM in the assay with HOP-92 NSCLC. Besides, in the assay on ACHN renal, the TGI was found to be 3.22 µM.

Source of the values: PubChem BioAssay (NCI).
